Source: US6995157B2, “Substituted 4,5-dihydro-1,2,4-triazin-3-ones, 1,2,4-triazin-3-ones, and their use as fungicides and insecticides” (priority 2000, dated 2006)

Experiments:
Pyricularia oryzae = assay type: in vivo; settings: protectant, 300 g/ha, greenhouse, inoculated 1 day after spraying, rated six days after inoculation; 100 is total disease control, 0 is no disease control
Sphaerotheca fuliginea = settings: in vivo

SMILES | RB percent control (Pyricularia oryzae) [%] | CPM percent control (Sphaerotheca fuliginea) [%]
CCCCCN1N=C(c2ccccc2)C(OC)NC1=O (racemic) [Compound 9] | 85 | 0
COC1NC(=O)N(C)N=C1c1ccc(Cl)cc1 (racemic) [Compound 12] | 80 | 0
COC1NC(=O)N(C(C)(C)C)N=C1c1ccc(Cl)cc1 (racemic) [Compound 14] | 90 | 50
CCCCCCCCCCN1N=C(c2ccc(Cl)cc2)C(OC)NC1=O (racemic) [Compound 17] | 80 | 0
COC1NC(=O)N(c2ccccc2)N=C1c1ccc(Cl)cc1 (racemic) [Compound 18] | 85 | 80
COC1NC(=O)N(CC(F)(F)F)N=C1c1ccc(Cl)cc1 (racemic) [Compound 20] | 80 | 0
CCCCCN1N=C(c2ccc(Cl)cc2)C(OC)NC1=O (centres unmarked) [Compound 1, 2-pentyl-5-methoxy-6-(4-chlorophenyl)-4,5-dihydro-1,2,4-triazin-3-one] | 85 | 0
CCCCCn1nc(-c2ccc(Cl)cc2)cnc1=O [Compound 2, 2-pentyl-6-(4-chlorophenyl)-1,2,4-triazin-3-one] | 85 | 50
CCCCN1N=C(c2ccc(Cl)cc2)C(OC)NC1=O (centres unmarked) [Compound 3, 2-n-butyl-5-methoxy-6-(4-chlorophenyl)-4,5-dihydro-1,2,4-triazin-3-one] | 85 | 0
CCCCn1nc(-c2ccc(Cl)cc2)cnc1=O [Compound 4, 2-n-butyl-6-(4-chlorophenyl)-1,2,4-triazin-3-one] | 85 | 0
CCCCN1N=C(c2ccc(Cl)cc2)CN(S(C)(=O)=O)C1=O [Compound 5, 2-n-butyl-4-methanesulfonyl-6-(4-chlorophenyl)-4,5-dihydro-1,2,4-triazin-3-one] | 0 | 90
CCCCCn1nc(-c2ccc(OC)cc2)c(-c2ccc(OC)cc2)nc1=O [Compound 8, 2-n-pentyl-5,6-bis-(4-methoxyphenyl)-1,2,4-triazin-3-one] | 50 | 0
CCCCCn1nc(-c2ccccc2)cnc1=O [Compound 10] | 80 | 0
Cn1nc(-c2ccc(Cl)cc2)cnc1=O [Compound 11] | 80 | 0
CC(C)(C)n1nc(-c2ccc(Cl)cc2)cnc1=O [Compound 13] | 85 | 0
O=C1NCC(c2ccc(Cl)cc2)=NN1c1ccccc1 [Compound 15] | 75 | 0
CS(=O)(=O)N1CC(c2ccc(Cl)cc2)=NN(c2ccccc2)C1=O [Compound 16] | 50 | 0
O=C1NCC(c2ccc(Cl)cc2)=NN1CC(F)(F)F [Compound 19] | 75 | 0
CN1CC(c2ccc(Cl)cc2)=NN(C#N)C1=O [Compound 27] | 50 | 0
C#CCN1N=C(c2ccc(Cl)cc2)CN(CCC)C1=O [Compound 28] | 50 | 0
CN1CC(c2ccccc2Cl)=NN(Cc2ccc(Cl)cc2)C1=O [Compound 29] | 50 | 
CN1CC(c2ccc(Cl)cc2)=NN(Cc2ccc(Cl)cc2)C1=O [Compound 30] | 75 | 
CCC#CCn1nc(-c2ccc(Cl)cc2)cnc1=O [Compound 31] | 85 | 50
CCC#CCN1CC(c2ccc(Cl)cc2)=NN(C)C1=O [Compound 32] | 75 | 75
CN1N=C(c2ccc(Cl)cc2)CNC1=O [Compound 33] | 80 | 0
CCCCCn1nc(-c2ccc(OC)cc2)cnc1=O [Compound 34] | 85 | 0
